Experimental data published in ChEMBL document CHEMBL4507264, “Data for DCP probe BAY-7598” (2021).

How the values were obtained:
[1] = target: D(3) dopamine receptor (Homo sapiens) (UniProt P35462); details: Compound concentration 10.0 uM
[2] = target: MAP kinase-interacting serine/threonine-protein kinase 2 (Homo sapiens) (UniProt Q9HBH9); details: Compound concentration 1000.0 nM
[3] = tested on: Epidermal growth factor receptor (Homo sapiens), P00533 [L858R]; details: Compound concentration 1000.0 nM
[4] = target: Serine/threonine-protein kinase 16 (Homo sapiens) (UniProt O75716); details: Compound concentration 1000.0 nM
[5] = target: 5-hydroxytryptamine receptor 2A (Homo sapiens) (UniProt P28223); details: Compound concentration 10.0 uM
[6] = target: Beta-2 adrenergic receptor (Homo sapiens) (UniProt P07550); details: Compound concentration 10.0 uM
Chain of Beta-2 adrenergic receptor (Homo sapiens) (P07550 whole entry, looked up): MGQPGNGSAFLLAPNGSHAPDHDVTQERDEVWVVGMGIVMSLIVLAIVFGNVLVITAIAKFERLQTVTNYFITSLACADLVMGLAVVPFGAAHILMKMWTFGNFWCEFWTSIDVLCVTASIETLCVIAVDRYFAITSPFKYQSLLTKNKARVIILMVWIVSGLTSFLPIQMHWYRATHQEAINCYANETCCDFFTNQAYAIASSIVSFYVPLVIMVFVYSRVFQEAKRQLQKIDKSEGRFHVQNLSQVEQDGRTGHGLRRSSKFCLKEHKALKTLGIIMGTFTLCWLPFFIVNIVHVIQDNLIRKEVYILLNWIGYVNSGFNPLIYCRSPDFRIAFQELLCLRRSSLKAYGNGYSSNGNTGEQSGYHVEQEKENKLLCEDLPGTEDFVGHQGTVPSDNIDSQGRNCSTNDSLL

[7] = target: Tyrosine-protein kinase receptor TYRO3 (Homo sapiens) (UniProt Q06418); details: Compound concentration 1000.0 nM
[8] = target: Serine/threonine-protein kinase 25 (Homo sapiens) (UniProt O00506); details: Compound concentration 1000.0 nM
[9] = target: Non-receptor tyrosine-protein kinase TYK2 (Homo sapiens) (UniProt P29597); details: Compound concentration 1000.0 nM
[10] = target: Calcium/calmodulin-dependent protein kinase type 1D (Homo sapiens) (UniProt Q8IU85); details: Compound concentration 1000.0 nM
[11] = target: Receptor-interacting serine/threonine-protein kinase 1 (Homo sapiens) (UniProt Q13546); details: Compound concentration 1000.0 nM
[12] = target: Cyclin-dependent kinase 3 (Homo sapiens) (UniProt Q00526); details: Compound concentration 1000.0 nM
[13] = target: Ribosomal protein S6 kinase alpha-4 (Homo sapiens) (UniProt O75676); details: Compound concentration 1000.0 nM
[14] = target: Misshapen-like kinase 1 (Homo sapiens) (UniProt Q8N4C8); details: Compound concentration 1000.0 nM
[15] = target: Delta-type opioid receptor (Homo sapiens) (UniProt P41143); details: Compound concentration 10.0 uM
[16] = tested on: Receptor-type tyrosine-protein kinase FLT3 (Homo sapiens), P36888 [D835H]; details: Compound concentration 1000.0 nM
[17] = target: Vascular endothelial growth factor receptor 2 (Homo sapiens) (UniProt P35968); details: Compound concentration 1000.0 nM
[18] = target: Tyrosine-protein kinase ABL1 (Homo sapiens) (UniProt P00519); details: Compound concentration 1000.0 nM
[19] = target: Cyclin-dependent kinase 16 (Homo sapiens) (UniProt Q00536); details: Compound concentration 1000.0 nM
Chain of Cyclin-dependent kinase 16 (Homo sapiens) (Q00536 whole entry): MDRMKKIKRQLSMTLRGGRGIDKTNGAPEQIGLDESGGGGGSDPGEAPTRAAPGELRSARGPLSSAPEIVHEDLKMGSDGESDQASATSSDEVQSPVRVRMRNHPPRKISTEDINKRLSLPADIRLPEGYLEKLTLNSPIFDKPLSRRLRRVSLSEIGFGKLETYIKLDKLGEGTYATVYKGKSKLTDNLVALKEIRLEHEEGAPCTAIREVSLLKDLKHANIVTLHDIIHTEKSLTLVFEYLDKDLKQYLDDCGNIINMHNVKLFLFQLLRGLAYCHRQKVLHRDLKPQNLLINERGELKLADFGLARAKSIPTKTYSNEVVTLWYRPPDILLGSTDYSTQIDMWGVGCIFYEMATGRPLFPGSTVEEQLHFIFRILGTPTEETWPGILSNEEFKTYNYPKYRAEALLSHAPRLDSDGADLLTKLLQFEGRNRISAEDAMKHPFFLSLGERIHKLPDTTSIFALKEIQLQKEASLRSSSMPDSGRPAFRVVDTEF

[20] = target: BMP-2-inducible protein kinase (Homo sapiens) (UniProt Q9NSY1); details: Compound concentration 1000.0 nM
[21] = target: Serine/threonine-protein kinase D1 (Homo sapiens) (UniProt Q15139); details: Compound concentration 1000.0 nM
[22] = target: 5-hydroxytryptamine receptor 1B (Homo sapiens) (UniProt P28222); details: Compound concentration 10.0 uM
Chain of 5-hydroxytryptamine receptor 1B (Homo sapiens) (P28222 whole entry): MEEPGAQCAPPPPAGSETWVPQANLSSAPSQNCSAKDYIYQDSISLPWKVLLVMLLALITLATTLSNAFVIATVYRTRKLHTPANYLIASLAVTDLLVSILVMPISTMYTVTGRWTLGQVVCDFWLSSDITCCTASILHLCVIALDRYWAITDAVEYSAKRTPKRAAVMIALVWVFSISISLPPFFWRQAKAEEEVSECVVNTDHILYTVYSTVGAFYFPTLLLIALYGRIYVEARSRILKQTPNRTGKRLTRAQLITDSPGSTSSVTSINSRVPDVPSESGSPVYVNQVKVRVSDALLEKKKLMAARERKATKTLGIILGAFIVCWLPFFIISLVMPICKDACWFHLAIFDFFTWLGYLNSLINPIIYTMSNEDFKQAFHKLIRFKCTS

[23] = tested on: ALK tyrosine kinase receptor (Homo sapiens), Q9UM73 [C1156Y]; details: Compound concentration 1000.0 nM
[24] = target: 5-hydroxytryptamine receptor 7 (Homo sapiens) (UniProt P34969); details: Compound concentration 10.0 uM
[25] = target: Wee1-like protein kinase (Homo sapiens) (UniProt P30291); details: Compound concentration 1000.0 nM
Chain of Wee1-like protein kinase (Homo sapiens) (P30291 whole entry, looked up): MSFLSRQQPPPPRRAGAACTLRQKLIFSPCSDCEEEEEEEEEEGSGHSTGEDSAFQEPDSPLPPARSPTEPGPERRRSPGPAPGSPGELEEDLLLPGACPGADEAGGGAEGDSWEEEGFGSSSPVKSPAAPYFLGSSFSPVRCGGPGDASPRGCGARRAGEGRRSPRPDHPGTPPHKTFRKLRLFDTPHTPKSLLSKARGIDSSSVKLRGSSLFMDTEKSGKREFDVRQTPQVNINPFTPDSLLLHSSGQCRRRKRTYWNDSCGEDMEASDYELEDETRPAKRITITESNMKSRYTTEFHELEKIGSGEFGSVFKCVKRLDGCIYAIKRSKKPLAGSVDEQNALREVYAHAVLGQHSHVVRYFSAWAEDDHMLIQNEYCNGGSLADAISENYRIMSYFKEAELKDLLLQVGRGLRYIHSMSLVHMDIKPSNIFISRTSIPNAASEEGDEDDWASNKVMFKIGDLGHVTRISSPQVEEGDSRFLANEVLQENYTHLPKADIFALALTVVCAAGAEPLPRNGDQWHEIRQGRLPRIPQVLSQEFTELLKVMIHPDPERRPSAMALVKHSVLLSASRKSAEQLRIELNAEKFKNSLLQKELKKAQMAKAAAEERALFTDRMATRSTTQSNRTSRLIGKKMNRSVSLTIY

[26] = target: MAP kinase-activated protein kinase 2 (Homo sapiens) (UniProt P49137); details: Compound concentration 1000.0 nM
Chain of MAP kinase-activated protein kinase 2 (Homo sapiens) (P49137 whole entry, looked up): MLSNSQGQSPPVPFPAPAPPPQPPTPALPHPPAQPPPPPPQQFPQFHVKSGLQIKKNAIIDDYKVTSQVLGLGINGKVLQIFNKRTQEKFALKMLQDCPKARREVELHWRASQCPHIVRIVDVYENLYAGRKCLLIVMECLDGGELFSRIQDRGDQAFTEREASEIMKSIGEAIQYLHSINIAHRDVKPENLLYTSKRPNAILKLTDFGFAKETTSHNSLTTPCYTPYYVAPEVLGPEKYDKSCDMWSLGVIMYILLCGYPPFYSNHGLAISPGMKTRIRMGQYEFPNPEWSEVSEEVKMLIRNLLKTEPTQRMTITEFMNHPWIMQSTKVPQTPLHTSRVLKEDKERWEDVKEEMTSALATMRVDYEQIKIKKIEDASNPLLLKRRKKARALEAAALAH

[27] = tested on: Epidermal growth factor receptor (Homo sapiens), P00533 [UNDEFINED MUTATION]; details: Compound concentration 1000.0 nM
[28] = target: Mitogen-activated protein kinase 13 (Homo sapiens) (UniProt O15264); details: Compound concentration 1000.0 nM
[29] = target: 5-hydroxytryptamine receptor 6 (Homo sapiens) (UniProt P50406); details: Compound concentration 10.0 uM
Chain of 5-hydroxytryptamine receptor 6 (Homo sapiens) (P50406 whole entry): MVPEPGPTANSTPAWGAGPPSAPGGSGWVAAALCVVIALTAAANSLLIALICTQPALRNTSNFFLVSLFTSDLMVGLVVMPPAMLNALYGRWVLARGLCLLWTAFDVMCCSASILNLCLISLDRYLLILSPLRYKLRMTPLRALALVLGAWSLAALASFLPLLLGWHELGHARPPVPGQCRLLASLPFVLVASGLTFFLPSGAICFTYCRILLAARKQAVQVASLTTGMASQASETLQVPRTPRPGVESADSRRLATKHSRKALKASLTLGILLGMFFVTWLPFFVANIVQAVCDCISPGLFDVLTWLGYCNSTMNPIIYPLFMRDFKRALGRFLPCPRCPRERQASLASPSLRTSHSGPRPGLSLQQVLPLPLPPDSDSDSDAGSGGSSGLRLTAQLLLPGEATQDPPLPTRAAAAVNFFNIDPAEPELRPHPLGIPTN

[30] = target: Rho-associated protein kinase 1 (Homo sapiens) (UniProt Q13464); details: Compound concentration 1000.0 nM
[31] = target: Serine/threonine-protein kinase 10 (Homo sapiens) (UniProt O94804); details: Compound concentration 1000.0 nM
[32] = target: Protein-tyrosine kinase 6 (Homo sapiens) (UniProt Q13882); details: Compound concentration 1000.0 nM
[33] = target: Mitogen-activated protein kinase kinase kinase 4 (Homo sapiens) (UniProt Q9Y6R4); details: Compound concentration 1000.0 nM
[34] = target: Serine/threonine-protein kinase 32B (Homo sapiens) (UniProt Q9NY57); details: Compound concentration 1000.0 nM
Chain of Serine/threonine-protein kinase 32B (Homo sapiens) (Q9NY57 whole entry): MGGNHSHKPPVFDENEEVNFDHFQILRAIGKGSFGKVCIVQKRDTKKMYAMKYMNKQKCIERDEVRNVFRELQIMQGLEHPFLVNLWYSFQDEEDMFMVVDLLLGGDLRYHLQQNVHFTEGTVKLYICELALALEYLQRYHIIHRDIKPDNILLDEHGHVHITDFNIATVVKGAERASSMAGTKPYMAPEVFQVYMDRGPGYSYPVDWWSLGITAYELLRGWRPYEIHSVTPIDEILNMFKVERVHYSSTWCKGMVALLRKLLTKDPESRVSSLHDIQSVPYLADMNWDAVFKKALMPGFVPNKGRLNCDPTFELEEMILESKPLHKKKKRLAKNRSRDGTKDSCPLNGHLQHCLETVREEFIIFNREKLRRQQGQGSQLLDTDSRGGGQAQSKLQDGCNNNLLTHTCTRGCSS

[35] = target: Uncharacterized serine/threonine-protein kinase SBK3 (Homo sapiens) (UniProt P0C264); details: Compound concentration 1000.0 nM
[36] = target: Receptor-interacting serine/threonine-protein kinase 4 (Homo sapiens) (UniProt P57078); details: Compound concentration 1000.0 nM
[37] = target: Myosin light chain kinase (Homo sapiens) (UniProt Q32MK0); details: Compound concentration 1000.0 nM
[38] = target: Cyclin-dependent kinase-like 3 (Homo sapiens) (UniProt Q8IVW4); details: Compound concentration 1000.0 nM
Chain of Cyclin-dependent kinase-like 3 (Homo sapiens) (Q8IVW4 whole entry, looked up): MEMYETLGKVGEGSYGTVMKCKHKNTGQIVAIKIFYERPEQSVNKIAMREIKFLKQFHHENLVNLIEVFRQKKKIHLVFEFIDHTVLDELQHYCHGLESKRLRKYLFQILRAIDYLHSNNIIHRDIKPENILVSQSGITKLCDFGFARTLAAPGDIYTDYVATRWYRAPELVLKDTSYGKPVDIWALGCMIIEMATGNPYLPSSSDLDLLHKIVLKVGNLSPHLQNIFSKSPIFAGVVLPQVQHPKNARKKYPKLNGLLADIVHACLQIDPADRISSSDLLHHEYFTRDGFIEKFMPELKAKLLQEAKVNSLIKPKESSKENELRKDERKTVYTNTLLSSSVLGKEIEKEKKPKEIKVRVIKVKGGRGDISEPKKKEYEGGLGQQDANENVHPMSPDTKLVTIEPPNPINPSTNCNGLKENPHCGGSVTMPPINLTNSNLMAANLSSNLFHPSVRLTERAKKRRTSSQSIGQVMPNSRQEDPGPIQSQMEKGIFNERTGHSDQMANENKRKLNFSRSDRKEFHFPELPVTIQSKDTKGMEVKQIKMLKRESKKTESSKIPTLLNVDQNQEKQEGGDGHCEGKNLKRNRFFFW

[39] = target: Dual specificity tyrosine-phosphorylation-regulated kinase 1B (Homo sapiens) (UniProt Q9Y463); details: Compound concentration 1000.0 nM
Chain of Dual specificity tyrosine-phosphorylation-regulated kinase 1B (Homo sapiens) (Q9Y463 whole entry, looked up): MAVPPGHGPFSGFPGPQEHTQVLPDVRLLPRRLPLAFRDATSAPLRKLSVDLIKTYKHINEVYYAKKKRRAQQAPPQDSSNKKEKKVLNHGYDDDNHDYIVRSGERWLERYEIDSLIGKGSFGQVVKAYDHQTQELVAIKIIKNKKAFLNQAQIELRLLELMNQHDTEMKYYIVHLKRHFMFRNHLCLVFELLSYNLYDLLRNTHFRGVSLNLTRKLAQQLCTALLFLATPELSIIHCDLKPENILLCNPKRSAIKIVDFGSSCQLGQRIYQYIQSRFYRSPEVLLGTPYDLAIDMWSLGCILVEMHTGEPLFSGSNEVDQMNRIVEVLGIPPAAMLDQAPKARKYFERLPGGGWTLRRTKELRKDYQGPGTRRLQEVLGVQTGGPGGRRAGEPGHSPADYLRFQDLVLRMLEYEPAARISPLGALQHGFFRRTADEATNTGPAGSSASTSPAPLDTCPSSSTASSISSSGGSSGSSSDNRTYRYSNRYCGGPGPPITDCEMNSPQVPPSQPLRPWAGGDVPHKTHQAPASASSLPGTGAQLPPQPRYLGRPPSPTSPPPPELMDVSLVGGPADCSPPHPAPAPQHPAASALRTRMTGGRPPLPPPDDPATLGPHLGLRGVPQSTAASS

[40] = target: Insulin-like growth factor 1 receptor (Homo sapiens) (UniProt P08069); details: Compound concentration 1000.0 nM
[41] = target: 5-hydroxytryptamine receptor 5A (Homo sapiens) (UniProt P47898); details: Compound concentration 10.0 uM
[42] = target: Ribosomal protein S6 kinase alpha-6 (Homo sapiens) (UniProt Q9UK32); details: Compound concentration 1000.0 nM
[43] = target: Mitogen-activated protein kinase kinase kinase 11 (Homo sapiens) (UniProt Q16584); details: Compound concentration 1000.0 nM
[44] = target: Serine/threonine-protein kinase LATS1 (Homo sapiens) (UniProt O95835); details: Compound concentration 1000.0 nM
[45] = target: Serine/threonine-protein kinase mTOR (Homo sapiens) (UniProt P42345); details: Compound concentration 1000.0 nM
[46] = target: Serine/threonine-protein kinase 24 (Homo sapiens) (UniProt Q9Y6E0); details: Compound concentration 1000.0 nM
Chain of Serine/threonine-protein kinase 24 (Homo sapiens) (Q9Y6E0 whole entry, looked up): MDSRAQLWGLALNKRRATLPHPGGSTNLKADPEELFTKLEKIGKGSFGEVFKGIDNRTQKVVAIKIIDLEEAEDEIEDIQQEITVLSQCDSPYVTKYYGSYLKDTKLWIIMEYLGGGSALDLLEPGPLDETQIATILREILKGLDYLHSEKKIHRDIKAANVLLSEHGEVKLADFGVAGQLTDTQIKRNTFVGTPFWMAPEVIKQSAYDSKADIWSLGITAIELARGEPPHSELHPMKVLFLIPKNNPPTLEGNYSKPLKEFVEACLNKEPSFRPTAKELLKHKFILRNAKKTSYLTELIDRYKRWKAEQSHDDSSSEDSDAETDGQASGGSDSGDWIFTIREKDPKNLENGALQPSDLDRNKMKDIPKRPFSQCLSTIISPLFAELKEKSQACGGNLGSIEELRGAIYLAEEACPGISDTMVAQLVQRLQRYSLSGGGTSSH

O=C(O)[C@@H]1[C@@H](Cn2nnc3ccccc3c2=O)CC[C@H]1C(=O)c1ccc(OCCC2CCOCC2)cc1 [BAY-694]
inactive: inhibition [1] -4.94% | residual activity [2] 99% | residual activity [3] 100% | residual activity [4] 89% | inhibition [5] 18.4% | inhibition [6] 24.4% | residual activity [7] 100% | residual activity [8] 87% | residual activity [9] 58% | residual activity [10] 91% | residual activity [11] 100% | residual activity [12] 100% | residual activity [13] 100% | residual activity [14] 100% | inhibition [15] 15.9% | residual activity [16] 83% | residual activity [17] 78% | residual activity [18] 95% | residual activity [19] 100% | residual activity [20] 100% | residual activity [21] 100% | inhibition [22] 8.05% | residual activity [23] 100% | inhibition [24] -2.99% | residual activity [25] 93% | residual activity [26] 100% | residual activity [27] 87% | residual activity [28] 94% | inhibition [29] 26.9% | residual activity [30] 84% | residual activity [31] 84% | residual activity [32] 99% | residual activity [33] 91% | residual activity [34] 100% | residual activity [36] 81% | residual activity [37] 72% | residual activity [38] 98% | residual activity [39] 86% | residual activity [40] 100% | inhibition [41] 1.33% | residual activity [42] 100% | residual activity [43] 92% | residual activity [44] 90% | residual activity [45] 96% | residual activity [46] 99%
active: residual activity [35] 43%

O=C(O)[C@H]1[C@H](Cn2nnc3ccccc3c2=O)CC[C@@H]1C(=O)c1ccc(OCCC2CCOCC2)cc1 [BAY-7598]
active: residual activity [9] 41%
inactive: inhibition [1] 7.27% | residual activity [2] 83% | residual activity [3] 95% | residual activity [4] 85% | inhibition [5] 16.2% | inhibition [6] 8.44% | residual activity [7] 100% | residual activity [8] 90% | residual activity [10] 96% | residual activity [11] 84% | residual activity [12] 100% | residual activity [13] 100% | residual activity [14] 100% | inhibition [15] 1.43% | residual activity [16] 72% | residual activity [17] 88% | residual activity [18] 80% | residual activity [19] 98% | residual activity [20] 86% | residual activity [21] 85% | inhibition [22] 11.5% | residual activity [23] 100% | inhibition [24] -3.55% | residual activity [25] 100% | residual activity [26] 89% | residual activity [27] 76% | residual activity [28] 97% | inhibition [29] 16.6% | residual activity [30] 87% | residual activity [31] 100% | residual activity [32] 100% | residual activity [33] 100% | residual activity [34] 100% | residual activity [35] 100% | residual activity [36] 80% | residual activity [37] 93% | residual activity [38] 87% | residual activity [39] 100% | residual activity [40] 100% | inhibition [41] 6.91% | residual activity [42] 86% | residual activity [43] 92% | residual activity [44] 84% | residual activity [45] 100% | residual activity [46] 90%
